# Assay results published in patent US20230131025A1, “QUINOLYL PHOSPHINE OXIDE COMPOUND, AND COMPOSITION AND APPLICATION THEREOF” (Betta Pharmaceuticals Co., Ltd., priority 2020, published 2023).
# What was measured:
# EGFR WT = EGFR WT (Homo sapiens, UniProt P00533); assay: Kinase inhibition assay (mobility shift); type: biochemical
# Method in brief: (§1)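 Caliper mobility-shift read of substrate conversion after kinase-compound preincubation 10 min at room temperature, then ATP/substrate addition and reaction at room temperature. Ten-point 3-fold dilutions from 3,000 or 100 nM top; IC50 from variable-slope four-parameter fit of percent inhibition.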
# EGFR Δ19del/T790M/C797S = EGFR Δ19del/T790M/C797S (Homo sapiens, UniProt P00533, T790M/C797S, form not given); assay: Kinase inhibition assay (mobility shift); type: biochemical
# Method in brief: as §1
# IGF1R = IGF1R (Homo sapiens, UniProt P08069); assay: Kinase inhibition assay (mobility shift); type: biochemical
# Method in brief: as §1
# [1] = test system: human epidermal cancer cells A431 carrying EGFR WT; assay: Cell proliferation experiment (CellTiter Glo, 72 hours); type: cell-based; conditions: Homo sapiens, A-431
# Method in brief: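 Cells seeded at 2000 or 3000/well and exposed 72 h to 9-point 3-fold dilutions, top final 10000 nM or 1111 nM, 0.1% DMSO. Viability by CellTiter-Glo luminescence. Inhibition relative to cell and medium controls; IC50 by four-parameter nonlinear regression.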
# [2] = test system: Ba/F3-Δ19del/T790M/C797S-derived xenograft (CDX); assay: In vivo efficacy experiment, xenograft tumor growth; parameters: species or system BALB/c nude mice
# Experimental: In vivo efficacy experiments were performed on Ba/F3-Δ19del/T790M/C797S-derived xenograft (CDX) BALB/c nude mice. […] They were fed in an SPF environment, with each cage individually ventilated (6 mice per cage). […] Each mouse was subcutaneously inoculated with 0.1 mL cells (5×10^6 cells, the volume ratio of matrigel to cell was 1:1) on the right upper limb. When the tumor volume was about 150 mm^3, the grouped mice were separately administered with compound J-022 (10 mg/kg, 100 mg/kg, 150 mg/kg) orally QD for 15 consecutive days. Tumor diameters were measured with vernier calipers twice a week. The volume of tumor is calculated as: V=0.5a×b^2, wherein a and b represent the long diameter and short diameter of the tumor, respectively. The tumor growth inhibition rate TGI (%) was calculated to evaluate the tumor inhibitory effect of the compounds. TGI (%) was calculated with the following formula: TGI (%)=(1−(the average tumor volume of the compound treatment group at the end of the administration−the average tumor volume of the compound treatment group at the beginning of the administration)/(the average tumor volume of the solvent control group at the end of treatment−the average tumor volume of the solvent control group at the beginning of treatment))×100%.
# EGFR Δ19del/T790M/C797S, sequence (P00533 with tags, fused parts or gaps DEL746-750/T790M/C797S, form open): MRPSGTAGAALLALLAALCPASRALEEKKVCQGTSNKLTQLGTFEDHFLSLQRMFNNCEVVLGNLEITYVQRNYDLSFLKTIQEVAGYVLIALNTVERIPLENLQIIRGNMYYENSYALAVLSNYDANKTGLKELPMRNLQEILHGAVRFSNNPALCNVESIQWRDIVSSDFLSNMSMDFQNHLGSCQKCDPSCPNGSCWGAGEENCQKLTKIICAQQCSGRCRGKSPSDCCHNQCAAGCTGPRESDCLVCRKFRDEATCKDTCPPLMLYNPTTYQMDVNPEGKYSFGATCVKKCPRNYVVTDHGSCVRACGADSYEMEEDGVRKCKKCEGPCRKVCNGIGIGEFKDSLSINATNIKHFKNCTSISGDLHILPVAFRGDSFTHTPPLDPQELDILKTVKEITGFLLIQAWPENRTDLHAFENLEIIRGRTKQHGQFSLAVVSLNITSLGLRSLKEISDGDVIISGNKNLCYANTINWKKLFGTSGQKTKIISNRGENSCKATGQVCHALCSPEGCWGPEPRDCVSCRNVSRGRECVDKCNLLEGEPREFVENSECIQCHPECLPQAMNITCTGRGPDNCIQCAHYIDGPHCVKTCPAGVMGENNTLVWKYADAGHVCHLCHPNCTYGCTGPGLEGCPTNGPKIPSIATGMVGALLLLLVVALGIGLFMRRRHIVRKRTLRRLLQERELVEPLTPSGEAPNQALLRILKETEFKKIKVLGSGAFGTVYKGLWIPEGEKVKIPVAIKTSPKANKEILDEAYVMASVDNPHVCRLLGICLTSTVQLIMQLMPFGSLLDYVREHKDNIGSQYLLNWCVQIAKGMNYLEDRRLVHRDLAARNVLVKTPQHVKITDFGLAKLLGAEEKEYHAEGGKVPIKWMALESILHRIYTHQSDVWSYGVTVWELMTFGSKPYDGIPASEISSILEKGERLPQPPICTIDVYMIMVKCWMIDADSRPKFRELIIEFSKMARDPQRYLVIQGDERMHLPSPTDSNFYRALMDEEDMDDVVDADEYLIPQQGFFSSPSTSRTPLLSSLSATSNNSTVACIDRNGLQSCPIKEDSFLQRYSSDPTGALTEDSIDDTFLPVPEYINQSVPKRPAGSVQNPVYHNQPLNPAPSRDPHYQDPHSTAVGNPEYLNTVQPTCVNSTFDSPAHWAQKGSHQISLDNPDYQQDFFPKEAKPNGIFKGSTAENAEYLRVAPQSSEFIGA
# EGFR WT, sequence (P00533 25-1210): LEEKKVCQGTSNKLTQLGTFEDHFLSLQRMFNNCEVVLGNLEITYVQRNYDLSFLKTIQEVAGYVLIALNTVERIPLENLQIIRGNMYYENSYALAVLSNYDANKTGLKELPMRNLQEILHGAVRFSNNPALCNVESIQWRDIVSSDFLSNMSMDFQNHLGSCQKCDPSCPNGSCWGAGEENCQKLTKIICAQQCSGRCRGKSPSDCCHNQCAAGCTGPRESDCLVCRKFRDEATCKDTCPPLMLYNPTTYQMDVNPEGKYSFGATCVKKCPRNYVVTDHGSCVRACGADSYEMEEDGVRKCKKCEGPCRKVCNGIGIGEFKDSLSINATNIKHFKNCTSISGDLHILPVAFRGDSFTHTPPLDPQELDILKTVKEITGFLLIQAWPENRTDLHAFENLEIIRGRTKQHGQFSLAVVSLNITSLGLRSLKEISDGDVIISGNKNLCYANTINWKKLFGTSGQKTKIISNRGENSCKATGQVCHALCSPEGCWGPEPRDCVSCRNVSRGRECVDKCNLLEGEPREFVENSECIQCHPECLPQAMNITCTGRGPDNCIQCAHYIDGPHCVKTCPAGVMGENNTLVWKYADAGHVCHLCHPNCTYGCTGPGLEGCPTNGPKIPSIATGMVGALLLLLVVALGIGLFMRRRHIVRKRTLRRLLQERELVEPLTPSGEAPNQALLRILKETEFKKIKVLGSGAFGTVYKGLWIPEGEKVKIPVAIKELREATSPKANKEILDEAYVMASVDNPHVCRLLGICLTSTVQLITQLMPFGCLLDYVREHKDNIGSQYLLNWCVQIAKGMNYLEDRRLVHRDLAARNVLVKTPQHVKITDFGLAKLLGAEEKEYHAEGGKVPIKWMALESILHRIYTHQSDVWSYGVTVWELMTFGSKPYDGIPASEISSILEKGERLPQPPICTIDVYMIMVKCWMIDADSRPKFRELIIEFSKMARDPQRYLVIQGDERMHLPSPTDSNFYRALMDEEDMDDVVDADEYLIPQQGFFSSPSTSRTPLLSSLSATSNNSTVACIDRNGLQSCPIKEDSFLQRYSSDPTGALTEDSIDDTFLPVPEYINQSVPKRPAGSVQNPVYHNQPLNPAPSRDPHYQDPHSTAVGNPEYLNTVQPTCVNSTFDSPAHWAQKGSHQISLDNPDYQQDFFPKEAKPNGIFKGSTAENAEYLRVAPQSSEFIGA
# IGF1R, sequence (P08069 31-1367, species assumed): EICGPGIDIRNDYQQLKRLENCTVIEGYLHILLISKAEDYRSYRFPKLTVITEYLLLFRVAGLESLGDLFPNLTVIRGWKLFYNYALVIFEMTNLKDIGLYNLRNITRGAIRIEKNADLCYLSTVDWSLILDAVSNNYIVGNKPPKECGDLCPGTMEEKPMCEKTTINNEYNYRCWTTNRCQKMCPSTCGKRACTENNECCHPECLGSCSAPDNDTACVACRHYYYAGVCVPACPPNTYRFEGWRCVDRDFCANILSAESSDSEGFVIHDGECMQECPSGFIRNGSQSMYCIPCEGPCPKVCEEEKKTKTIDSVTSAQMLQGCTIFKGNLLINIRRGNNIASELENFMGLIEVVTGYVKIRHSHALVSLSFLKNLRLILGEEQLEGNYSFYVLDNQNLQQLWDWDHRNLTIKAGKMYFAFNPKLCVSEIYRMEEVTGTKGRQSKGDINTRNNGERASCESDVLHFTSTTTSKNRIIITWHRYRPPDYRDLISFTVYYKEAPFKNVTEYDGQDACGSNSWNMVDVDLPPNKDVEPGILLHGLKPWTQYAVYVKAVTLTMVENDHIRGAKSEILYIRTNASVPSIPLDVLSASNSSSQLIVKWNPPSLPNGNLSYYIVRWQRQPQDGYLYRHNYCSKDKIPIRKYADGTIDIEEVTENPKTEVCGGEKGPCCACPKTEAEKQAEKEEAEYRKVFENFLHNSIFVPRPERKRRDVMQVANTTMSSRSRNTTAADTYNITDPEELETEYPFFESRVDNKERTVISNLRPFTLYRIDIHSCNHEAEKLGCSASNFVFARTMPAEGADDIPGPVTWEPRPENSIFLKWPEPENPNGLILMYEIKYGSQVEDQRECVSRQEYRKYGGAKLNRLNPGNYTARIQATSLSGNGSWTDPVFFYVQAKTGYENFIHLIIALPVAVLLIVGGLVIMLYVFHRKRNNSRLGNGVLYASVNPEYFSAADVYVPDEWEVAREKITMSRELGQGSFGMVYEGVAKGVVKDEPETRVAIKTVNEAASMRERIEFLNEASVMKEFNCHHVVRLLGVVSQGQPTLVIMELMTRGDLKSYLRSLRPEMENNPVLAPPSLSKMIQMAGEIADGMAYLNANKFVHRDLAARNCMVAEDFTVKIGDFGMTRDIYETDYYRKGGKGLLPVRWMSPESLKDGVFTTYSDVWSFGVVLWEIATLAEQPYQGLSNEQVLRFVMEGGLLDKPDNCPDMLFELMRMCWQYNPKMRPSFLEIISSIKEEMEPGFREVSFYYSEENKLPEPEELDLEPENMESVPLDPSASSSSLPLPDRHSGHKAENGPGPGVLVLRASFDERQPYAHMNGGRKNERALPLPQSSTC
structure (smiles),measurement,setting,value
"COc1cc(N2CCC(N3CCN(C)CC3)CC2)c(C)cc1Nc1ncc(Br)c(Nc2ccc3nc(C4CC4)ccc3c2P(C)(C)=O)n1 [Compound J-022, (6-((5-Bromo-2-((2-methoxy-5-methyl-4-(4-(4-methylpiperazin-1-yl)piperidin-1-yl)phenyl)amino)pyrimidin-4-yl)amino)-2-cyclopropylquinolin-5-yl)dimethylphosphine oxide]",IC50,EGFR WT,20.2 nM
same,IC50,EGFR Δ19del/T790M/C797S,0.3 nM
same,IC50,IGF1R,195 nM
same,IC50,[1],1130 nM
same,Tumor volume,"[2]; 10 mg/kg/day oral QD, 0 day",152 mm^3
same,15 day TGI %,"[2]; 10 mg/kg/day oral QD, 15 consecutive days",53%
same,Tumor volume,"[2]; 10 mg/kg/day oral QD, 3 day",183 mm^3
same,Tumor volume,"[2]; 10 mg/kg/day oral QD, 7 day",321 mm^3
same,Tumor volume,"[2]; 10 mg/kg/day oral QD, 10 day",747 mm^3
same,Tumor volume,"[2]; 10 mg/kg/day oral QD, 15 day",1650 mm^3
same,Tumor regression,"[2]; 100 mg/kg/day or 150 mg/kg/day, 15 consecutive days",tumor completely regressed
same,Tumor volume,"[2]; 100 mg/kg/day oral QD, 0 day",151 mm^3
same,15 day TGI %,"[2]; 100 mg/kg/day oral QD, 15 consecutive days",105%
same,Tumor volume,"[2]; 100 mg/kg/day oral QD, 3 day",99 mm^3
same,Tumor volume,"[2]; 100 mg/kg/day oral QD, 7 day",59 mm^3
same,Tumor volume,"[2]; 100 mg/kg/day oral QD, 10 day",0 mm^3
same,Tumor volume,"[2]; 100 mg/kg/day oral QD, 15 day",0 mm^3
same,Tumor volume,"[2]; 150 mg/kg/day oral QD, 0 day",152 mm^3
same,15 day TGI %,"[2]; 150 mg/kg/day oral QD, 15 consecutive days",105%
same,Tumor volume,"[2]; 150 mg/kg/day oral QD, 3 day",102 mm^3
same,Tumor volume,"[2]; 150 mg/kg/day oral QD, 7 day",4 mm^3
same,Tumor volume,"[2]; 150 mg/kg/day oral QD, 10 day",0 mm^3
same,Tumor volume,"[2]; 150 mg/kg/day oral QD, 15 day",0 mm^3
same,half effective dose,[2]; dose with TGI 53%,10 mg/kg/day
